In patent US7348347B2, “Substituted 4,5,6,7-tetrahydrobenzthiazol-2-ylamine compounds” (Gruenenthal GmbH, priority 2004, dated 2008):

Assays:
5-HT uptake = target: T1, 5-HT uptake (Rattus norvegicus, UniProt P31652); experiment: Inhibition of 5-HT uptake in rat brain synaptosomes; type: biochemical; conditions: [3H]-5-HT
T1 construct: from tissue; host or cells: rat brain synaptosomes (P2 fraction) from marrow (medulla) and pons
Protocol: The relevant literature reference is enclosed herein by reference and is to be regarded as part of the disclosure.
The homogenate is centrifuged at 4° C. for 10 minutes at 1000 g. Following subsequent centrifugation at 17,000 g for 55 minutes, the synaptosomes (P2 fraction) are obtained, which are then resuspended in 0.32 M […] (0.5 mL/100 mg of the original weight).
The respective uptake was measured in a 96 well microtiter plate. The volume was 250 μL and the incubation was carried out at room temperature (ca 20-25° C.) under a blanket of oxygen.
The 96 samples through were then filtered through a Unifilter GF/B® microtiter plate (Packard) and washed with 200 mL of incubated buffer with the aid of a “Brabdel Cell-Harvester MPXRI 96T”. The Unifilter GF/B plate was dried at 55° C. over a period of 1 h. The plate was then sealed with a back seal® (Packard) and there were then added 35 μL of scintillant fluid per well (Ultima Gold, Packard).
A detailed description of the method is disclosed in the literature, for example, in M. Ch.

NA transporter = target: T2, NA transporter (Rattus norvegicus, UniProt Q63380); experiment: Inhibition of noradrenaline uptake in rat brain synaptosomes; type: biochemical; conditions: 10 μM, rat synaptosomes (hypothalamus), [3H]-NA; for inhibition at 10 µM: read-out: % Inhibition of NA uptake [10 μM]
T2 construct: from tissue; host or cells: rat brain synaptosomes (P2 fraction) from hypothalamus
T2 sequence (Q63380 1-617): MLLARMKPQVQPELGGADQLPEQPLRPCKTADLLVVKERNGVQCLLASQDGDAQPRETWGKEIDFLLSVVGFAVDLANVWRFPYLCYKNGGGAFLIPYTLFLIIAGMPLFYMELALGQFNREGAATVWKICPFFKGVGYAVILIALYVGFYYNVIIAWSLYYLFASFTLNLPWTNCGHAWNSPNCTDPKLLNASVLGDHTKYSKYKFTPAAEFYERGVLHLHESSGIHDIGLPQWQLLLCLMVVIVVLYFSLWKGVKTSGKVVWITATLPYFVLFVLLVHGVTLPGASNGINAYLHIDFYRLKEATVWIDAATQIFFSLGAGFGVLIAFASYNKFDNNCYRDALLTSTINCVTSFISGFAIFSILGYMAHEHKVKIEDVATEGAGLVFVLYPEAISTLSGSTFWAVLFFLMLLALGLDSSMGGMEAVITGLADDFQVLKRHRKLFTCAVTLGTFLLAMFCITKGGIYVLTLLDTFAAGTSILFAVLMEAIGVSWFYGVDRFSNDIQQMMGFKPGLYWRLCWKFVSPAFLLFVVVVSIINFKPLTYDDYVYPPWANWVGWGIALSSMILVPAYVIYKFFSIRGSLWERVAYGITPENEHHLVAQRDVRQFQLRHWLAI
Protocol: II. […] For in vitro studies, synaptosomes of rat brain areas are freshly isolated, as described in the article “The isolation of nerve endings from brain” by E. G. Gray and […]. Anatomy 96, pages 79-88, 1962. The relevant literature reference is enclosed herein by reference and is to be regarded as part of the disclosure. […] The homogenate is centrifuged at 4° C. for 10 minutes at 1000 g. […] The respective uptake was measured in a 96 well microtiter plate. The volume was 250 μL and the incubation was carried out at room temperature (ca 20-25° C.) under a blanket of oxygen. […] The 96 samples through were then filtered through a Unifilter GF/B® microtiter plate (Packard) and washed with 200 mL of incubated buffer with the aid of a “Brabdel Cell-Harvester MPXRI 96T”. The Unifilter GF/B plate was dried at 55° C. over a period of 1 h. The plate was then sealed with a back seal® (Packard) and there were then added 35 μL of scintillant fluid per well (Ultima Gold, Packard). Following sealing with a top seal® (Packard) and following adjustment of the equilibrium (approximately over a period of 5 h), the radioactivity is determined in a 1450 Microbeta® (Wallac). […] The amount of protein used in the above determination corresponded to the values known from the literature, such as is described in “Protein measurement with the folin phenol reagent”, Lowry et al., J. Biol. Chem., 193, 265-275, 1951. A detailed description of the method is disclosed in the literature, for example, in […], and B. […] The relevant literature references are incorporated herein by reference and are to be regarded as part of the disclosure.

[1] = rat synaptosomes (medulla and pons)

T1 sequence (P31652 whole entry): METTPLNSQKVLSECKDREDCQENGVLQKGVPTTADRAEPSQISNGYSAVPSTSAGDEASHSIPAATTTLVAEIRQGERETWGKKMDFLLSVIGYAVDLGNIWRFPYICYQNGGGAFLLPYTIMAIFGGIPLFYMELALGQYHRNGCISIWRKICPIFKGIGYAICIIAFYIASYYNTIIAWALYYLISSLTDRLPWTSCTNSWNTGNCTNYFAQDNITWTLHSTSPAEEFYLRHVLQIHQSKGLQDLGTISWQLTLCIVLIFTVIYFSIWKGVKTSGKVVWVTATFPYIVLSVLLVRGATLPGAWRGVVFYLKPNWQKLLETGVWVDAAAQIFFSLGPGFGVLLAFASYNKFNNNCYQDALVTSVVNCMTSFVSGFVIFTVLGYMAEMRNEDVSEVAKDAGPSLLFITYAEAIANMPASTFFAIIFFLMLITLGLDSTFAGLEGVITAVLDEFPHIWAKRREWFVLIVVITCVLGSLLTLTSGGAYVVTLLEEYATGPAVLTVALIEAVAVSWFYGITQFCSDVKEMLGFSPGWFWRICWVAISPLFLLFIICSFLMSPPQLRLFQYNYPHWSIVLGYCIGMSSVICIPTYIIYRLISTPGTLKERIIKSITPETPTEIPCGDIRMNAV

| SMILES | inhibition at 10 µM (5-HT uptake; [1]) | inhibition at 10 µM (NA transporter) | % Inhibition of 5-HT uptake [10 μM] (5-HT uptake; [1]) | % Inhibition of NA uptake [10 μM] (NA transporter) | % Inhibition of 5-HT uptake [10 μM] (5-HT uptake; rat synaptosomes (and pons)) |
| --- | --- | --- | --- | --- | --- |
| O=C(Cc1cccs1)Nc1nc2c(s1)CCCC2C(=O)NCCCN1CCOCC1 (centres unmarked) [Example 14] |  |  | 50% | 43% |  |
| O=C(Nc1nc2c(s1)CCCC2C(=O)N1CCN(Cc2cc3ccccc3o2)CC1)c1ccoc1 (centres unmarked) [Example 17, Furan-3-carboxylic acid[4-(4-benzofuran-2-ylmethylpiperazin-1-carbonyl)-4,5,6,7-tetrahydrobenzthiazol-2-yl]amide] |  |  | 72% | 81% |  |
| CCCCCC(=O)Nc1nc2c(s1)CCCC2C(=O)NCCCN1CCCCC1C (centres unmarked) [Example 18, 2-Hexanylamino-4,5,6,7-tetrahydrobenzthiazol-4-carboxylic acid[3-(2-methylpiperidin-1-yl)propyl]amide] |  |  | 57% | 43% |  |
| CCOc1ccccc1C(=O)Nc1nc2c(s1)CCCC2C(=O)N1CCN(CCc2ccccc2)CC1 (centres unmarked) [Example 20, 2-Ethoxy-N-[4-(4-phenethylpiperazin-1-carbonyl)-4,5,6,7-tetrahydrobenzthiazol-2-yl]benzamide] | 64% | 77% |  |  |  |
| O=C(COc1ccc(F)cc1)Nc1nc2c(s1)CCCC2C(=O)N1CCN(c2ccccc2)CC1 (centres unmarked) [Example 21, 2-(4-Fluorophenoxy)-N-[4-(4-phenylpiperazin-1-carbonyl)-4,5,6,7-tetrahydrobenzthiazol-2-yl]acetamide] | 47% | 55% |  |  |  |
| COc1cccc(N2CCN(C(=O)C3CCCc4sc(NC(=O)c5ccccc5)nc43)CC2)c1 (centres unmarked) [Example 28, N-{4-[4-(3-Methoxyphenyl)piperazin-1-carbonyl]-4,5,6,7-tetrahydrobenzthiazol-2-yl}benzamide] | 48% | 60% |  |  |  |
| COc1cc(Br)c(CN2CCC(NC(=O)C3CCCc4sc(NC(=O)C(C)c5ccccc5)nc43)C2)cc1OC (centres unmarked) [Example 33] |  |  | 63% | 79% |  |
| CCCCCC(=O)Nc1nc2c(s1)CCCC2C(=O)N1CCN(Cc2c(OC)cc(OC)cc2OC)CC1 (centres unmarked) [Example 34, Hexanoic acid{4-[4-(2,4,6-trimethoxybenzyl)piperazin-1-carbonyl]-4,5,6,7-tetrahydrobenzthiazol-2-yl}amide] |  |  | 63% | 50% |  |
| O=C(Cc1cccs1)Nc1nc2c(s1)CCCC2C(=O)NCCN1CCCCCC1 (centres unmarked) [Example 39, 2-(2-Thiophen-2-ylacetylamino)-4,5,6,7-tetrahydrobenzthiazol-4-carboxylic acid(2-azepan-1-ylethyl)amide] |  |  | 49% | 50% |  |
| CCOc1ccccc1CN1CCC(CNC(=O)C2CCCc3sc(NC(=O)Cc4cccs4)nc32)C1 (centres unmarked) [Example 40] |  |  |  | 47% | 48% |
| CCOc1ccc(Br)cc1CN1CCC(NC(=O)C2CCCc3sc(NC(=O)c4ccco4)nc32)C1 (centres unmarked) [Example 50, 2-[(Furan-2-carbonyl)amino]-4,5,6,7-tetrahydrobenzthiazol-4-carboxylic acid [1-(5-bromo-2-ethoxybenzyl)pyrrolidin-3-yl]amide] | 72% | 93% |  |  |  |
| O=C(Nc1nc2c(s1)CCCC2C(=O)N1CCN(c2ccccn2)CC1)c1ccoc1 (centres unmarked) [Example 64, Furan-3-carboxylic acid[4-(4-pyridin-2-ylpiperazin-1-carbonyl)-4,5,6,7-tetrahydrobenzthiazol-2-yl]amide] |  |  | 48% | 53% |  |
| O=C(Nc1nc2c(s1)CCCC2C(=O)N1CCN(CCc2ccccc2)CC1)c1ccoc1 (centres unmarked) [Example 71, Furan-3-carboxylic acid[4-(4-phenethylpiperazin-1-carbonyl)-4,5,6,7-tetrahydrobenzthiazol-2-yl]amide] |  |  | 66% | 90% |  |
| O=C(CCc1ccccc1)Nc1nc2c(s1)CCCC2C(=O)N1CCN(c2cccc(C(F)(F)F)c2)CC1 (centres unmarked) [Example 72, 3-Phenyl-N-{4-[4-(3-trifluoromethylphenyl)piperazin-1-carbonyl]-4,5,6,7-tetrahydrobenzthiazol-2-yl}propionamide] | 84% | 51% |  |  |  |
| CCOc1ccccc1C(=O)Nc1nc2c(s1)CCCC2C(=O)N1CCN(C(C)c2ccccc2)CC1 (centres unmarked) [Example 75, 2-Ethoxy-N-{4-[4-(1-phenylethyl)piperazin-1-carbonyl]-4,5,6,7-tetrahydrobenzthiazol-2-yl}benzamide] | 59% | 51% |  |  |  |

Further lines, with some results ahead:

| inhibition at 10 µM (5-HT uptake; [1]) | inhibition at 10 µM (NA transporter) | % Inhibition of 5-HT uptake [10 μM] (5-HT uptake; [1]) | % Inhibition of NA uptake [10 μM] (NA transporter) | SMILES | % Inhibition of 5-HT uptake [10 μM] (5-HT uptake; rat synaptosomes (and pons)) |
| --- | --- | --- | --- | --- | --- |
| 55% | 48% |  |  | COc1ccc(C(=O)Nc2nc3c(s2)CCCC3C(=O)NCC2CCN(Cc3c(F)cccc3Cl)C2)cc1 (centres unmarked) [Example 12, 2-(4-Methoxybenzoylamino)-4,5,6,7-tetrahydrobenzthiazol-4-carboxylic acid [1-(2-chloro-6-fluorobenzyl)pyrrolidin-3-yl]methylamide] |  |
| 44% | 60% |  |  | CC(C(=O)Nc1nc2c(s1)CCCC2C(=O)NCCC1CCCN1C)c1ccccc1 (centres unmarked) [Example 22, 2-(2-Phenylpropionylamino)-4,5,6,7-tetrahydrobenzthiazol-4-carboxylic acid [2-(1-methylpyrrolidin-2-yl)ethyl]amide] |  |
| 61% | 47% |  |  | CCCC(=O)Nc1nc2c(s1)CCCC2C(=O)N1CCN(Cc2cc3ccccc3o2)CC1 (centres unmarked) [Example 27, N-[4-(4-Benzofuran-2-ylmethylpiperazin-1-carbonyl)-4,5,6,7-tetrahydrobenzthiazol-2-yl]butyramide] |  |
| 55% | 73% |  |  | CCCC(=O)Nc1nc2c(s1)CCCC2C(=O)NCC1CCN(Cc2ccc(-c3ccccc3)cc2)C1 (centres unmarked) [Example 29, 2-Butyrylamino-4,5,6,7-tetrahydrobenzthiazol-4-carboxylic acid (1-biphenyl-4-ylmethylpyrrolidin-3-yl)methylamide] |  |
| 51% | 67% |  |  | O=C(CCc1ccccc1)Nc1nc2c(s1)CCCC2C(=O)NCC1CCN(Cc2cc3ccccc3o2)C1 (centres unmarked) [Example 48, 2-(3-Phenylpropionylamino)-4,5,6,7-tetrahydrobenzthiazol-4-carboxylic acid (1-benzofuran-2-ylmethylpyrrolidin-3-yl)methylamide] |  |
|  |  | 51% | 44% | CC=CC=CC(=O)Nc1nc2c(s1)CCCC2C(=O)NCC1CCN(Cc2c(Cl)cccc2Cl)C1 (centres unmarked) [Example 49, 2-Hexa-2,4-dienoylamino-4,5,6,7-tetrahydrobenzthiazol-4-carboxylic acid[1-(2,6-dichlorobenzyl)pyrrolidin-3-yl]methylamide] |  |
| 54% | 44% |  |  | O=C(CCc1ccccc1)Nc1nc2c(s1)CCCC2C(=O)NCC1CCN(Cc2ccc(-c3ccccc3)cc2)C1 (centres unmarked) [Example 55, 2-(3-Phenylpropionylamino)-4,5,6,7-tetrahydrobenzthiazol-4-carboxylic acid (1-biphenyl-4-ylmethylpyrrolidin-3-yl)methylamide] |  |
|  |  | 46% | 45% | CC=CC=CC(=O)Nc1nc2c(s1)CCCC2C(=O)NCC1CCN(Cc2c(F)cccc2Cl)C1 (centres unmarked) [Example 61, 2-Hexa-2,4-dienoylamino-4,5,6,7-tetrahydrobenzthiazol-4-carboxylic acid[1-(2-chloro-6-fluorobenzyl)pyrrolidin-3-yl]methylamide] |  |
|  |  | 97% | 42% | O=C(CC1CCCCC1)Nc1nc2c(s1)CCCC2C(=O)NCC1CCN(Cc2c(Cl)cccc2Cl)C1 (centres unmarked) [Example 67, 2-(2-cyclohexylacetylamino)-4,5,6,7-tetrahydrobenzthiazol-4-carboxylic acid[1-(2,6-dichlorobenzyl)pyrrolidin-3-yl]methylamide] |  |
| 71% | 75% |  |  | CC(C)(C)CC(=O)Nc1nc2c(s1)CCCC2C(=O)NC1CCN(Cc2ccccc2OCc2ccccc2)C1 (centres unmarked) [Example 73, 2-(3,3-Dimethylbutyrylamino)-4,5,6,7-tetrahydrobenzthiazol-4-carboxylic acid [1-(2-benzyloxybenzyl)pyrrolidin-3-yl]amide] |  |
